What was measured:
[1] = tested on: MCF-7 cells (human breast cancer cell line); assay: MTT cytotoxicity assay, MCF-7; format: cell-based; details: mean ± SEM
Procedure: (§1) Cell cultures were obtained from the human lung cancer cell line (A549), human cervical cancer cell line (Hela), human breast cancer cell line (MCF-7) and Normal cells isolated from human lung tissue (MRC-5) taken from the National Cell Bank of Iran (NCBI, Pasteur Institute, Tehran, Iran). All cells were cultured in RPMI-1640 medium supplemented with 10% FBS, antibiotics (penicillin 100 U/mL, streptomycin 100 µg/mL), at 37 °C in a humidified atmosphere containing 5% CO2.
(§2) Cytotoxic activities of all the synthesized compounds were assessed by standard 3-(4,5-dimethylthiazol-yl)-2,5-diphenyl-tetrazolium bromide (MTT) assay. The assay was performed according to a known protocol. The cells were seeded and plated in 96-well microplates at a density of 1 × 10^4 cells per well in 180 μL complete culture media. After 24 h incubation, the cells were treated with […] of different concentrations of synthesized compounds ranging from 1 × 10^–4 to 1 × 10^–7 M at identical conditions in triplicates. After 72 h, media were replaced with 150 μL media containing 0.5 mg/mL of MTT solution [57]. The plates were incubated at 37 °C for additional four hours. Then, media containing MTT were discarded and 150 μL dimethylsulfoxide (DMSO, > 99%) was added to each well to dissolve the formazan crystals.

[2] = tested on: A549 cells (human lung cancer cell line); assay: MTT cytotoxicity assay, A549; format: cell-based; details: mean ± SEM
Procedure: as §1, §2

[3] = tested on: Hela cells (human cervical cancer cell line); assay: MTT cytotoxicity assay, Hela; format: cell-based; details: 72 h, mean ± SEM
Procedure: as §1, §2

[4] = tested on: MRC-5 cells (normal cells from human lung tissue); assay: MTT cytotoxicity assay, MRC-5 normal cell line (safety); format: cell-based; details: mean ± SEM
Procedure: as §1, §2

SMILES	IC50 ([1]; Homo sapiens, MCF7, 72 h)	IC50 ([2]; Homo sapiens, A549, 72 h)	IC50 ([3]; Homo sapiens, HeLa)	IC50 ([4]; Homo sapiens, MRC5, 72 h)	melting point	IC50 ([1]; 72 h)	IC50 ([2]; 72 h)	IC50 [3]	IC50 ([4]; 72 h)
O=C(c1ccccc1)C(c1ccccc1)C(C(=O)c1ccc(F)cc1)n1cncn1 (stereo not shown) [10 g, 1-(4-fluorophenyl)-3,4-diphenyl-2-(1H-1,2,4-triazol-1-yl) butane-1,4-dione]	93 ± 3.1 µM	150 ± 4.9 µM	128 ± 6.1 µM	257 ± 4.3 µM	154 to 157 °C	–	–	–	–
O=C(c1ccccc1)C(c1ccccc1)C(C(=O)c1ccc(Cl)cc1)n1cncn1 (stereo not shown) [10 h, 1-(4-chlorophenyl)-3,4-diphenyl-2-(1H-1,2,4-triazol-1-yl) butane-1,4-dione]	89 ± 5.2 µM	112 ± 10.8 µM	172 ± 7.1 µM	249 ± 5.8 µM	174 to 176 °C	–	–	–	–
O=C(c1ccccc1)C(c1ccccc1)C(C(=O)c1ccc(Cl)cc1Cl)n1cncn1 (stereo not shown) [10 k, 1-(2,4-dichlorophenyl)-3,4-diphenyl-2-(1H-1,2,4-triazol-1-yl) butane-1,4-dione]	44.1 ± 7.6 µM	102 ± 5.2 µM	121 ± 6.8 µM	148 ± 6.1 µM	178 to 181 °C	–	–	–	–
N.N.[Cl][Pt][Cl] [Cis platin, reference compound]	–	–	–	–	–	36.5 ± 1.9 µM	14.8 ± 0.27 µM	12.3 ± 3.3 µM	45.2 ± 2.5 µM
O=C(c1ccccc1)C(Cc1ccccc1)n1cncn1 (stereo not shown) [Compound 7a, 1,3-diphenyl-2-(1H-1,2,4-triazol-1-yl) propan-1-one]	154 ± 5.8 µM	150 ± 5.3 µM	92.4 ± 7.3 µM	> 300 µM	145 to 148 °C	–	–	–	–
O=C(c1ccc(Cl)cc1Cl)C(Cc1ccccc1)n1cncn1 (stereo not shown) [Compound 7b, 1-(2,4-dichlorophenyl)-3-phenyl-2-(1H-1,2,4-triazol-1-yl) propan-1-one]	23.4 ± 2.6 µM	75.8 ± 4.6 µM	7.9 ± 3.1 µM	72.6 ± 3.4 µM	121 to 123 °C	–	–	–	–
O=C(c1ccc(Cl)cc1)C(C(c1ccccc1)c1ccccc1)n1cncn1 (stereo not shown) [Compound 7c, 1-(4-chlorophenyl)-3,3-diphenyl-2-(1H-1,2,4-triazol-1-yl) propan-1-one]	60 ± 4.9 µM	177 ± 5.9 µM	81.7 ± 6.3 µM	201 ± 9.5 µM	140 to 142 °C	–	–	–	–
O=C(c1ccc(Br)cc1)C(C(c1ccccc1)c1ccccc1)n1cncn1 (stereo not shown) [Compound 7d, 1-(4-bromophenyl)-3,3-diphenyl-2-(1H-1,2,4-triazol-1-yl) propan-1-one]	9.8 ± 0.9 µM	43.4 ± 4.5 µM	< 12 µM	35.6 ± 2.7 µM	110 to 113 °C	–	–	12.1 ± 3.6 µM	–
O=C(c1ccc(Cl)cc1Cl)C(C(c1ccccc1)c1ccccc1)n1cncn1 (stereo not shown) [Compound 7e, 1-(2,4-dichlorophenyl)-3,3-diphenyl-2-(1H-1,2,4-triazol-1-yl) propan-1-one]	4.7 ± 1.4 µM	9.4 ± 1.8 µM	–	27.8 ± 3.7 µM	118 to 121 °C	–	–	–	–
c1ccc(CC(Cc2ccccc2)n2cncn2)cc1 [Compound 8a, 1-(1,3-diphenylpropan-2-yl)-1H-1,2,4-triazole]	158 ± 3.5 µM	127 ± 4.9 µM	142 ± 2.1 µM	279.1 ± 2.5 µM	81 to 83 °C	–	–	–	–
Clc1ccc(CC(C(c2ccccc2)c2ccccc2)n2cncn2)cc1 (stereo not shown) [Compound 8b, 1-(3-(4-chlorophenyl)-1,1-diphenylpropan-2-yl)-1H-1,2,4-triazole]	178 ± 2.5 µM	124 ± 3.4 µM	198 ± 5.5 µM	279 ± 2.8 µM	93 to 96 °C	–	–	–	–
Brc1ccc(CC(C(c2ccccc2)c2ccccc2)n2cncn2)cc1 (stereo not shown) [Compound 8c, 1-(3-(4-bromophenyl)-1,1-diphenylpropan-2-yl)-1H-1,2,4-triazole]	52.8 ± 7.4 µM	104 ± 7.3 µM	79.1 ± 2.5 µM	104 ± 7.3 µM	88 to 91 °C	–	–	–	–
O=C(CC(C(=O)c1ccccc1)n1cncn1)c1ccccc1 (stereo not shown) [Compound 10a, 4-diphenyl-2-(1H-1,2,4-triazol-1-yl) butane-1,4-dione]	6.43 µM	21.1 ± 4.2 µM	–	21.7 ± 1.5 µM	115 to 118 °C	6.4 ± 1.7 µM	–	–	–
O=C(CC(C(=O)c1ccc(Cl)cc1)n1cncn1)c1ccccc1 (stereo not shown) [Compound 10b, 1-(4-chlorophenyl)-4-phenyl-2-(1H-1,2,4-triazol-1-yl) butane-1,4-dione]	62.6 ± 2.5 µM	110 ± 1.3 µM	48.3 ± 4.1 µM	259 ± 8.3 µM	131 to 133 °C	–	–	–	–
O=C(CC(C(=O)c1ccc(Br)cc1)n1cncn1)c1ccccc1 (stereo not shown) [Compound 10c, 1-(4-bromophenyl)-4-phenyl-2-(1H-1,2,4-triazol-1-yl) butane-1,4-dione]	17.3 ± 5.4 µM	104 ± 1.3 µM	32.4 ± 6.9 µM	57.8 ± 1.7 µM	149 to 151 °C	–	–	–	–
O=C(CC(C(=O)c1ccc(Br)cc1)n1cncn1)c1ccc(Cl)cc1 (stereo not shown) [Compound 10d, 1-(4-bromophenyl)-4-(4-chlorophenyl)-2-(1H-1,2,4-triazol-1-yl) butane-1,4-dione]	10.2 ± 2.1 µM	16.5 ± 2.6 µM	< 12 µM	42.8 ± 2.1 µM	162 to 165 °C	–	–	9.8 ± 1.7 µM	–
O=C(CC(C(=O)c1ccc(Cl)cc1Cl)n1cncn1)c1ccccc1 (stereo not shown) [Compound 10e, 1-(2,4-dichlorophenyl)-4-phenyl-2-(1H-1,2,4-triazol-1-yl) butane-1,4-dione]	45.4 ± 6.5 µM	104 ± 5.9 µM	31.6 ± 4.2 µM	104 ± 7.3 µM	153 to 156 °C	–	–	–	–
O=C(c1ccccc1)C(c1ccccc1)C(C(=O)c1ccccc1)n1cncn1 (stereo not shown) [Compound 10f, 4-triphenyl-3-(1H-1,2,4-triazol-1-yl) butane-1,4-dione]	134 ± 4.5 µM	114 ± 7.6 µM	82.7 ± 5.8 µM	289 ± 10.2 µM	185 to 188 °C	–	–	–	–
O=C(c1ccccc1)C(c1ccccc1)C(C(=O)c1ccc(Br)cc1)n1cncn1 (stereo not shown) [Compound 10i, 1-(4-bromophenyl)-3,4-diphenyl-2-(1H-1,2,4-triazol-1-yl) butane-1,4-dione]	72.2 ± 6.5 µM	135 ± 5.3 µM	59.3 ± 2.7 µM	218 ± 3.2 µM	168 to 171 °C	–	–	–	–
O=C(c1ccccc1)C(c1ccccc1)C(C(=O)c1ccc(F)cc1F)n1cncn1 (stereo not shown) [Compound 10j, 1-(2,4-difluorophenyl)-3,4-diphenyl-2-(1H-1,2,4-triazol-1-yl) butane-1,4-dione]	45.4 ± 3.2 µM	101 ± 1.8 µM	12.3 ± 1.9 µM	101 ± 1.3 µM	114 to 117 °C	–	–	–	–
